Measured values published in PMC12019362, “Conformational changes in the motor ATPase CpaF facilitate a rotary mechanism of Tad pilus assembly” (Nature Communications, 2025).

B1: Caulobacter crescentus CpaF (Tad pilus motor ATPase) (enzyme, Caulobacter crescentus NA1000, UniProt Q9L714 1-501, looked up)
chain: MFGKRDSSASGDPKAPPPAPAGGATIATRPQRVEPVAAPEPKAPAPKVSGPAPKPTVGLEQLRAAQGQPQTANIVREQSDYYHATKTTIFNALLNTIDLSQLAQLDLKQAGEEIRDIVAELVAIKNVSMSVAEQEHLVQDIINDVLGYGPLEPLLARDDIADIMVNGAHRVFIEVGGKVQLTNVRFRDNLQLMNICQRIVSQVGRRVDESSPICDARLPDGSRVNVIAPPLALDGPTLTIRKFKKDKLTMKNLVEFASISPEGARVLGVIGACRCNLVISGGTGSGKTTLLNTMTAFIDPTERVVTCEDAAELQLQQPHVVRLETRPPNLEGSGAVTMRDLVKNCLRMRPERIIVGEVRGPEAFDLLQAMNTGHDGSMGTLHANSPREAISRIESMITMGGYGLPSKTIKEMIVGSVDVIIQAARLRDGSRRITHITEVVGLEGDVIVTQDLFVYEITGEDEHGKVVGKHRSTGIARPRFWDRARYYGLERELAEALDAAE
notes: CpaF, Caulobacter crescentus NA1000, cloned from genomic DNA into pET28a; 501 residues (IDR 1-79, 3HB 80-146, NTD-CAD 147-501); residues 80-501 are modelled in the maps, the IDR is not resolved; Hexamer with C2 symmetry in all five cryo-EM structures; the construct was cloned from strain NA1000; also called WT CpaF; full length CpaF; source: E. coli Rosetta 2, purified (Ni-NTA, Superose 6 SEC)

How the values were obtained:
CpaF^66-501 = target: T1, CpaF^66-501 (Caulobacter vibrioides, UniProt Q9L714); assay: enzyme-coupled ATPase assay (pyruvate kinase / lactate dehydrogenase, NADH at […] nm); format: biochemical; conditions: 1 mM ATP, 1 mM MgCl2, pH 8.0, 30 °C
T1 construct: IDR truncation, residues 66-501, N-terminal His6 tag (pET28a), E. coli Rosetta 2

CpaF^73-501 = target: T2, CpaF^73-501 (Caulobacter vibrioides, UniProt Q9L714); assay: as above; format: biochemical; conditions: 1 mM ATP, 1 mM MgCl2, pH 8.0, 30 °C
T2 construct: IDR truncation, residues 73-501, N-terminal His6 tag (pET28a), E. coli Rosetta 2

CpaF^80-501 = target: T3, CpaF^80-501 (Caulobacter vibrioides, UniProt Q9L714); assay: as above; format: biochemical; conditions: 1 mM ATP, 1 mM MgCl2, pH 8.0, 30 °C
T3 construct: IDR truncation, residues 80-501 (whole IDR removed), N-terminal His6 tag (pET28a), E. coli Rosetta 2

CpaF = target: T4, CpaF (Caulobacter vibrioides, UniProt Q9L714, K287A); assay: as above; format: biochemical; conditions: 1 mM ATP, 1 mM MgCl2, pH 8.0, 30 °C; Walker A mutant
T4 construct: full length (501 residues), N-terminal His6 tag (pET28a), tag removal not described, E. coli Rosetta 2; homohexamer; residues 80-501 modelled
T4 sequence (Q9L714 entry or part of it K287A): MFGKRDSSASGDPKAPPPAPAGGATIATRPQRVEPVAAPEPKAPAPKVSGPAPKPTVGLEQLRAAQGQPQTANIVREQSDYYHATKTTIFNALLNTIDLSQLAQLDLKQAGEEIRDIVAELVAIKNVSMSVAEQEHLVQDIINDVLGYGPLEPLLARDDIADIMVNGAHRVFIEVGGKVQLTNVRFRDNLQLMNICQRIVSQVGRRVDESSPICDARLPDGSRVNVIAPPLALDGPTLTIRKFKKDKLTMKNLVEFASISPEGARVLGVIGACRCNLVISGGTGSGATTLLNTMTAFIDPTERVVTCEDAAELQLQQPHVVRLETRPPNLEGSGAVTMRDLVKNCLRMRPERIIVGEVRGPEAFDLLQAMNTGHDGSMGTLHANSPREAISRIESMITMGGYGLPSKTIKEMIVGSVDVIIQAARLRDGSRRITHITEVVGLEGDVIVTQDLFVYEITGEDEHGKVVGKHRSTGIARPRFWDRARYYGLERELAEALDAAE

[1] = target: the molecule itself; assay: cryo-EM structure; purified CpaF, 5 mg/mL, 50 mM HEPES pH 8.0, 200 mM NaCl, 1 mM TCEP, 0.05% CHAPS; three samples: no added nucleotide, 50 uM equimolar ATP/ADP/MgCl2, 1 mM ATP/MgCl2; C2-symmetric hexamers (closed, compact, expanded)

Row | Molecule | ATPase activity (CpaF^66-501) | ATPase activity (CpaF^73-501) | ATPase activity (CpaF^80-501) | ATPase activity (CpaF) | stoichiometry N [1]
1 | Nc1ncnc2c1ncn2[C@@H]1O[C@H](COP(=O)(O)OP(=O)(O)OP(=O)(O)O)[C@@H](O)[C@H]1O [ATP] | Enzyme-coupled ATPase assays revealed that IDR truncation does not abrogate enzyme activity | Enzyme-coupled ATPase assays revealed that IDR truncation does not abrogate enzyme activity | Enzyme-coupled ATPase assays revealed that IDR truncation does not abrogate enzyme activity | IDR truncation does not abrogate enzyme activity while a Walker A motif point mutant CpaF^K287A does | 
2 | B1 |  |  |  |  | 6
